Data as given in patent publication US4954490A, “11 β-substituted progesterone analogs” (Research Triangle Institute, priority 1988, dated 1990).
Entries after “also recorded” stand apart in the source; their conditions may differ.

Key:
[1] = biological target: T1, progesterone receptor (Oryctolagus cuniculus, UniProt P06186); experiment: Relative binding affinity to progesterone receptor in uterine cytosol (displacement of tritium-labeled progesterone); design: species or system rabbit (estrogen-primed immature female); settings: for P-RBA/G-RBA: ratio of RBA values for progesterone receptor to glucocorticoid receptor; for Progestin RBA: relative to progesterone (=100), rabbit uterine cytosol
T1 construct: in the cytosol obtained from estrogen-primedimmature rabbit uterus; from tissue; host or cells: uterine cytosol of estrogen-primed immature female rabbits
T1 sequence (P06186 1-930): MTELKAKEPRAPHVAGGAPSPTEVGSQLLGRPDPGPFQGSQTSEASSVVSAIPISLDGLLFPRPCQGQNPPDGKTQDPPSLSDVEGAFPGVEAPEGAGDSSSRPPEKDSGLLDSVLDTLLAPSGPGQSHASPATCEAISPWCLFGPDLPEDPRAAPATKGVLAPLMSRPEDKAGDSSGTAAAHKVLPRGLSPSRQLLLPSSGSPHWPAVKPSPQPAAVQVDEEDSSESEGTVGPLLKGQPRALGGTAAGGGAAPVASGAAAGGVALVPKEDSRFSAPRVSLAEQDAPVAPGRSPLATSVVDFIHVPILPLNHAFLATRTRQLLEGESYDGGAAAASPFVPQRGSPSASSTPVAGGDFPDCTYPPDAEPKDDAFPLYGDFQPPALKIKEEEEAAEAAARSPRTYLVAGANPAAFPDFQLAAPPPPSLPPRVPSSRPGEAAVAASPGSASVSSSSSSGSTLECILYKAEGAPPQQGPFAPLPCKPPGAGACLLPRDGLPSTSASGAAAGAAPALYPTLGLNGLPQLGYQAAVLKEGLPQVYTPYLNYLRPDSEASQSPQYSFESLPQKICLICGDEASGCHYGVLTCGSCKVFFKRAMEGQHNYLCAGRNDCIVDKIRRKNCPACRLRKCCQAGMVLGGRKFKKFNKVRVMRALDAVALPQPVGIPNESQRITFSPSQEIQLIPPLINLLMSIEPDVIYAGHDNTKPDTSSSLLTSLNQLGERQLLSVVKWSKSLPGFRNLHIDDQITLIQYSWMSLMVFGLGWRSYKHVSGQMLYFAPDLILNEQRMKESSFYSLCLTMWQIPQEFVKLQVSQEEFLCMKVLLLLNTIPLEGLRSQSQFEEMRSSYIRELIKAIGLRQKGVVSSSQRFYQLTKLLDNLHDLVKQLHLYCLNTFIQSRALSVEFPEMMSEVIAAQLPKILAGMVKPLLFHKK
Experimental: (§1) The in vitro activity of the subject compounds was determined by measuring the binding affinities (RBA) of these compounds relative to progesterone for the progesterone receptor in the cytosol obtained from estrogen-primedimmature rabbit uterus and by measuring the RBA relative to dexamethasone for the glucocorticoid receptor from thymus of adrenalectomized rats. These assays were carried out by the procedures of J. R. Reel et al., Fertility and Sterility, 31, 552 (1979) (progesterone) and G. P. Chrousos et al., Endocrinology, 107, 472 (1980) (glucocorticoid).
^a Relative ability to displace tritiumlabeled progesterone from the
receptor in uterine cytosol from estrogenprimed immature female rabbits a
compared with progesterone (=100).

[2] = biological target: T2, glucocorticoid receptor (Rattus norvegicus, UniProt P06536); experiment: Relative binding affinity to glucocorticoid receptor of thymus (displacement of tritium-labeled dexamethasone); design: species or system rat (adrenalectomized); settings: relative to dexamethasone (=100)
T2 construct: glucocorticoid receptor from thymus of adrenalectomized rats; from tissue; host or cells: thymus of adrenalectomized rats
T2 sequence (P06536 1-795): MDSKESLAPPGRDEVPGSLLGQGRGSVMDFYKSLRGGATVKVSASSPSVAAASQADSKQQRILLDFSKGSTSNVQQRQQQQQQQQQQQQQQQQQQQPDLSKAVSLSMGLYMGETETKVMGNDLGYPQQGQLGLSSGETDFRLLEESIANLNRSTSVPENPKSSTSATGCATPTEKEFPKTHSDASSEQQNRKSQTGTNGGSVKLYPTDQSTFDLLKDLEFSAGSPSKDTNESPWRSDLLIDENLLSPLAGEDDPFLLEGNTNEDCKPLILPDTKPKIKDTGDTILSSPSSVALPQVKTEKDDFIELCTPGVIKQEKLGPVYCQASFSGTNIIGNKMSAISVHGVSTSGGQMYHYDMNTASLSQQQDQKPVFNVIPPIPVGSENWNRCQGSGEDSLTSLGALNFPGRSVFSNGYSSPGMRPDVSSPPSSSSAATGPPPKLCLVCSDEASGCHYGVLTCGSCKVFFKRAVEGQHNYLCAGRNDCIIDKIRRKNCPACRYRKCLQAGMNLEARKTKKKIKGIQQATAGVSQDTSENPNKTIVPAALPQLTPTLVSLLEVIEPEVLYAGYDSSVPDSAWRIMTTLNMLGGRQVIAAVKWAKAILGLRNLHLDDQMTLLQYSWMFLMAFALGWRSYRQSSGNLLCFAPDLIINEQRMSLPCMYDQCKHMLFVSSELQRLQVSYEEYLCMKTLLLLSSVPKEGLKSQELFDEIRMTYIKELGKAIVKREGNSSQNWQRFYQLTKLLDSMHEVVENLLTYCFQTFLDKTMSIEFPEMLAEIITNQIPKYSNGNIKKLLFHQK
Experimental: as §1
^b Relative ability to displace tritiumlabeled dexamethasone from the
receptor of the thymus of adrenalectomized rats as compared to […]

[3] = tested on: endometrial response due to subcutaneous administration of progesterone; experiment: Anti-McGinty intrauterine antiprogestational test; type: in vivo, estrogen-primed immature female rabbits; settings: for ED90 (actual dose) / ED50 / ED90 (calculated): intrauterine; for ED50 / ED90 (calculated): from % Inhib = a + b · ln dose
Experimental: The antiprogestational activity of the compounds was studied after both intrauterine and oral administration. In each case the compound was tested for its ability to inhibit the endometrial response due to subcutaneous administration of progesterone to estrogen-primed immature female rabbits. The methodology used for the intrauterine test has been described by D. A. McGinty et al. See Endocrinology, 24, 829 (1939). For oral administration of test compounds, the method used was analogous to that of Clauberg. See Clauberg, Zentr. Gynakol., 54, 2757 (1930) as modified by McPhail J. Physiol. (London), 83, 145 (1935). Each active compound was characterized by a dose-related ability to block the progestational effect of simultaneously administered progesterone. When the percent inhibition was plotted versus the log of the dose, linear relationships were obtained. Linear regression analysis permitted calculation of the ED50 and ED90 values (the doses required for 50% and 90% inhibition of the progesterone effect, respectively). The actual dose which gave 90% or more inhibition is also given, although this value is probably less accurate than the calculated values which are based on the dose-response line. […] Since the intrauterine administration bypasses most of the drug-metabolizing systems of the body, especially the liver, intrinsic activity is expected to correlate reasonably well with binding activity to the receptor, according to currently held hypotheses regarding receptor binding.

[4] = tested on: endometrial response due to subcutaneous administration of progesterone; experiment: Oral antiprogestational activity (Anti-Clauberg); type: in vivo, estrogen-primed immature female rabbits; settings: for % Inhibition: based on change in McPhail Index; for McPhail Index: scale 0-4; for Wt of Uterus: ± SD
Experimental: The antiprogestational activity of the compounds was studied after both intrauterine and oral administration. In each case the compound was tested for its ability to inhibit the endometrial response due to subcutaneous administration of progesterone to estrogen-primed immature female rabbits. The methodology used for the intrauterine test has been described by D. A. McGinty et al. See Endocrinology, 24, 829 (1939). For oral administration of test compounds, the method used was analogous to that of Clauberg. See Clauberg, Zentr. Gynakol., 54, 2757 (1930) as modified by McPhail J. Physiol. (London), 83, 145 (1935).

[5] = tested on: endometrial proliferation (McPhail Index); experiment: Progestational activity, intrauterine (McGinty assay); type: in vivo, estrogen-primed immature female rabbits; settings: right horn control 0
Experimental: In this assay estrogen-primed immature female rabbits are treated by injection of the test compound into the left horn of the uterus while the right horn is left untreated as a control. Each horn is then scored for endometrial proliferation by the McPhail Index. […] It indicates a possible need for reassessment of the current hypotheses regarding the effect of this substituent on antagonist versus agonist activity.

[6] = actual dose giving ≥ 90% inhibition
[7] = total oral dose 1.0 mg, total SC progesterone 0.8 mg, N=6
[8] = total oral dose 5.0 mg, total SC progesterone 0.8 mg, N=6
[9] = total oral dose 10.0 mg, total SC progesterone 0.8 mg, N=5
[10] = progesterone alone, total SC dose 0.8 mg, no oral compound, N=6

P-RBA/G-RBA [1]	Progestin RBA [1]	Glucocort. RBA [2]	SMILES	ED90 (actual dose) [3, 6] [µg]	ED50 [3] [µg]	ED90 (calculated) [3] [µg]	also measured
0.42	61	246	CC[C@@H]1C[C@H]2[C@@H]3C[C@H](C)C4=CC(=O)CCC4=C3[C@@H](c3ccc(N(C)C)cc3)C[C@]2(C)[C@H]1C(C)=O [Compound 15a, 6α-Methyl-16α-ethyl-11β-(4-N,N-dimethylaminophenyl)-19-norpregna-4,9-diene-3,20-dione]				ED90 (actual dose) ([3]; footnote c: no inhibition at tested dose): < 10 µg; McPhail Index, Left Horn (Treated) ([5]; dose 20.0 μg intrauterine): 3.8 ± 0.12; McPhail Index, Left Horn (Treated) ([5]; dose 40.0 μg intrauterine): 3.9 ± 0.12; McPhail Index, Left Horn (Treated) ([5]; dose 80.0 μg intrauterine): 3.8 ± 0.12
	8		CC(=O)C1=CC[C@H]2[C@@H]3CCC4=CC(=O)CCC4=C3[C@@H](c3ccc(N(C)C)cc3)C[C@]12C [Compound 23, 11β-(4-N,N-Dimethylaminophenyl)-19-norpregna-4,9,16-triene-3,20-dione]	1.0	0.26	0.81	binding to the progesterone receptor (in words) [1]: binds relatively weakly to the progesterone receptor; RBA as fraction of the value of the 17α-acetoxy compounds ([1]; compared with the 17α-acetoxy compounds): less than one-fifth; antiprogestational activity in vivo (in words) ([3]; rabbit, in vivo, listed as Δ-16 compound): even more potent activity; also recorded: exhibits strong antiprogestational activity
0.45	48	106	CC[C@@H]1C[C@H]2[C@@H]3C[C@@H](C)C4=CC(=O)CCC4=C3[C@@H](c3ccc(N(C)C)cc3)C[C@]2(C)[C@H]1C(C)=O [H, Et, β-CH3, 68-methyl-16α-ethyl-118-(4-N,N-dimethylaminophenyl)-19-norpregna-4,9-diene-3,20-dione]				
	15		CC(=O)O[C@]1(C(C)=O)CC[C@H]2[C@@H]3C[C@@H](C)C4=CC(=O)CCC4=C3[C@@H](c3ccc(N(C)C)cc3)C[C@@]21C [OAc, H, β-CH3]				
0.37	15	41	CC(=O)[C@@]1(O)CC[C@H]2[C@@H]3CCC4=CC(=O)CCC4=C3[C@@H](c3ccc(N(C)C)cc3)C[C@@]21C [OH, H, H]				
0.26	46	175	CC(=O)[C@@]1(O)CC[C@H]2[C@@H]3C[C@H](C)C4=CC(=O)CCC4=C3[C@@H](c3ccc(N(C)C)cc3)C[C@@]21C [OH, H, α-CH3]				
			CC(=O)[C@H]1CC[C@H]2[C@@H]3CCC4=CC(=O)CC[C@]4(C)[C@H]3CC[C@]12C [Progesterone, progesterone]				Wt of Uterus [4, 10]: 3.06 ± 0.45 g; McPhail Index [4, 10]: 3.96 ± 0.04

SMILES	P-RBA/G-RBA [1]	Progestin RBA [1]	Glucocort. RBA [2]	ED90 (actual dose) [3, 6] [µg]	ED50 [3] [µg]	ED90 (calculated) [3] [µg]	also measured
CC(=O)O[C@]1(C(C)=O)CC[C@H]2[C@@H]3CCC4=CC(=O)CCC4=C3[C@@H](c3ccc(N(C)C)cc3)C[C@@]21C [Compound 8a, 17α-acetoxy-11β-(4-N,N-dimethylaminophenyl)-19-norpregna-4,9-diene-3,20-dione]	0.24	47	198	2.0	0.41	1.2	
CC(=O)O[C@]1(C(C)=O)CC[C@H]2[C@@H]3C[C@H](C)C4=CC(=O)CCC4=C3[C@@H](c3ccc(N(C)C)cc3)C[C@@]21C [Compound 8b, 6α-methyl-17α-acetoxy-11β-(4-N,N-dimethylaminophenyl)-19-norpregna-4,9-diene-3,20-dione]	0.18	43	242	2.0	0.54	1.9	% Inhibition [4, 7]: 12.7 ± 3.0%; % Inhibition [4, 8]: 51.6 ± 12.2%; % Inhibition [4, 9]: 67.2 ± 6.1%; McPhail Index [4, 7]: 3.46 ± 0.12; McPhail Index [4, 8]: 1.92 ± 0.48; McPhail Index [4, 9]: 1.30 ± 0.24; Wt of Uterus [4, 7]: 3.26 ± 0.34 g; Wt of Uterus [4, 8]: 2.14 ± 0.22 g; Wt of Uterus [4, 9]: 2.24 ± 0.27 g
